The subject of one experiment is A549 cells. As to the kind of experiment: Cytotoxicity assay (resazurin) in A549 cells. The following applies: Homo sapiens, A549, 96 hr, read-out: Cell Viability IC50 A549. It is filed as cell-based. Here is the method:
(§1) Cells were allowed to grow at 37° C. for 24 hr in 5% CO2 environment (culture conditions) in a Nuaire incubator (humidified). Serially diluted test compounds (100 μL) within the desired testing concentration ranges were added to the culture plate were further incubated in culture conditions for 72 hr and 96 hr for A427 and A549 respectively. The experiment was terminated at the designated incubation time by replacing the medium with 100 μL of 1 mM of resazurin (R7017; Sigma) prepared in respective culture medium, and the plates were further incubated in culture conditions for 4-6 hr. Fluorescence was recorded using a multimodal plate reader (Biotek Synergy Neo) at an excitation wavelength of 535 nm and emission wavelength of 590 nm to obtain relative fluorescence units. Data analysis was done by subtracting the background fluorescence (only medium blank) value from each reading and then normalizing with the vehicle control (DMSO treated cells) to obtain percent survival/proliferation. Percent survival was then subtracted by 100 to get the percent inhibition of proliferation which was used to calculate IC50 values.
(Resazurin is reduced to fluorescent resorufin, in cell work by metabolically active cells.)

The subject of another experiment is A172 cells. As to the kind of experiment: Cytotoxicity assay (resazurin) in A172 cells. It is filed as cell-based. The following applies: Homo sapiens, A 172, read-out: Cell Viability IC50 A172. The procedure: [The source words this procedure for another cell line and reports this cell line under the same test.] as §1, with “A549 (CCL-185; ATCC) and A427 (HTB-53; ATCC), both lung epithelial cell lines were seeded in their respective medium (DMEM/MEM, 10569044/41090101; Gibco) at a cell count of 1500 cells per 100 μL per well in a 96 well edge plate (167425; ThermoFisher). Cells” for “Cells”, “values. Potency of compounds in other cell lines (As-Pc-1, Panc 10.05, A172) was determined in an analogous manner.” for “values.”

The test system of experiment [1] is A427 cells. The experiment is described as follows: Cytotoxicity assay (resazurin) in A427 cells. In kind it is cell-based. The following applies: Homo sapiens, A-427, 72 h, A427, 72 hr, read-out: Cell Viability IC50 A427. Here is the method: as §1
The subject of another experiment is As-Pc-1 cells. The experiment is described as follows: Cytotoxicity assay (resazurin) in As-Pc-1 cells. It is filed as cell-based. The following applies: Homo sapiens, ASPC1; As-Pc-1, resazurin; read-out: Cell Viability IC50 As-Pc-1. The procedure: [The source words this procedure for another cell line and reports this cell line under the same test.] as §1, with “A549 (CCL-185; ATCC) and A427 (HTB-53; ATCC), both lung epithelial cell lines were seeded in their respective medium (DMEM/MEM, 10569044/41090101; Gibco) at a cell count of 1500 cells per 100 μL per well in a 96 well edge plate (167425; ThermoFisher). Cells” for “Cells”, “values. Potency of compounds in other cell lines (As-Pc-1, Panc 10.05, A172) was determined in an analogous manner.” for “values.”

The next experiment has as its system Panc 10.05 cells. As to the kind of experiment: Cytotoxicity assay (resazurin) in Panc 10.05 cells. In kind it is cell-based. The following applies: Homo sapiens, Panc1005; Panc 10.05, resazurin; read-out: Cell Viability IC50 Panc 10.05. The procedure:
[The source words this procedure for another cell line and reports this cell line under the same test.] as §1, with “A549 (CCL-185; ATCC) and A427 (HTB-53; ATCC), both lung epithelial cell lines were seeded in their respective medium (DMEM/MEM, 10569044/41090101; Gibco) at a cell count of 1500 cells per 100 μL per well in a 96 well edge plate (167425; ThermoFisher). Cells” for “Cells”, “values. Potency of compounds in other cell lines (As-Pc-1, Panc 10.05, A172) was determined in an analogous manner.” for “values.”

The target of the next experiment is WEE1 kinase enzyme (Homo sapiens (Human), UniProt P30291). The experiment is described as follows: WEE1 IC50 determination, LanthaScreen Terbium Labeled TR-FRET kinase assay. In kind it is biochemical. The following applies: WEE1 enzyme 1 nM, ATP 10 μM, 1 h. The procedure:
IC50 values of compounds against WEE1 kinase enzyme were determined by LanthaScreen™ Terbium Labeled TR-FRET assay. […] After 1 h, […] stop solution containing Terbium labeled antibody (4 nM) (#PV3529, Invitrogen, Life Technologies Grand Island, N.Y.) and EDTA (#E5134, Sigma, St-Louis, Mo.) (20 mM) in TR-FRET dilution buffer (#PV3574, Invitrogen, Life Technologies Grand Island, N.Y.) was added. Readings were taken in a Synergy Neo Plate reader (BioTek, Winooski) at single excitation of 340 nm and Dual emission at 495 nm and 520 nm respectively.
The % activity of test samples was calculated as (Sample−Min)*100/(Max−Min). [Max: DMSO control, complete reaction with enzyme & DMSO and Min: No enzyme & DMSO].
A general note: TR-FRET usually uses a lanthanide donor and a delayed reading to cut background.

Experiment [2] relates to A427 cells. The experiment is described as follows: Activity of compounds in combination with cisplatin in A427 cells (resazurin). It is filed as cell-based. The following applies: Homo sapiens, A-427, 24 hr 2.5 μM cisplatin. The procedure: The activity of test compounds in combination with cisplatin in A427 cells was determined. Cells were seeded in a 96 well plate at 2000 cells/well. The next day, cells were treated with 2.5 μM cisplatin or vehicle (1×PBS) and incubated in culture conditions (37° C., 5% CO2) for 24 hr. Following the incubation, culture medium was replaced with medium containing test compound and cisplatin/vehicle, and cells were further incubated in culture conditions for another 72 hr. By this procedure, cisplatin was either continued or discontinued after an initial 24-hr incubation. Addition of test compound was in concentrations needed to obtain an 8-point dose response curve, with concentrations prepared by 3-fold dilution. The assay was terminated upon addition of resazurin, incubation for 4 hr in culture conditions and measurement of fluorescence at excitation and emission wavelengths of 535 and 590 nm, respectively.

The test system of experiment [3] is A427 cells. As to the kind of experiment: Cell proliferation assay (Cell Titer-Glo) in A427 cells. The following applies: Homo sapiens, A-427, typically 72 h. It is filed as cell-based. The procedure:
The effects of test compounds were studied in five cell lines with various histotypes. The cancer cells (Table 4) were harvested during the logarithmic growth period and counted. Adjust cell concentrations to the appropriated number with respective medium, and add 90 μL cell suspensions to 96-well plates. After cells were seeded, the plates were shaken gently to distribute cells evenly and incubated at 37° C., 5% CO2 on day 1.
Cell viability data were plotted using GraphPad Prism (version 5, GraphPad Software, Inc., San Diego, Calif.). In addition, a nonlinear regression model with a sigmoidal dose response and variable slope within GraphPad Prism was used to calculate the IC50 value of individual test compounds.
A general note: Cellular ATP, detected with luciferase, serves as a proxy for viable cell number.

The mark [4] stands for this setting: then compound + cisplatin 72 hr, read-out: Cell viability IC50 in A427 cells with 2.5 μM cisplatin: 24 hr cisplatin then compound + cisplatin.
The mark [5] stands for this setting: then compound alone 72 hr, read-out: Cell viability IC50 in A427 cells with 2.5 μM cisplatin: 24 hr cisplatin then compound.

Each structure is given as a SMILES string.

Data on 15 compounds can be found in US11299493B2, “Heterocyclic compounds and uses thereof” (NUVATION BIO INC., priority 2017, dated 2022).

WEE1 kinase enzyme, sequence (P30291 whole entry): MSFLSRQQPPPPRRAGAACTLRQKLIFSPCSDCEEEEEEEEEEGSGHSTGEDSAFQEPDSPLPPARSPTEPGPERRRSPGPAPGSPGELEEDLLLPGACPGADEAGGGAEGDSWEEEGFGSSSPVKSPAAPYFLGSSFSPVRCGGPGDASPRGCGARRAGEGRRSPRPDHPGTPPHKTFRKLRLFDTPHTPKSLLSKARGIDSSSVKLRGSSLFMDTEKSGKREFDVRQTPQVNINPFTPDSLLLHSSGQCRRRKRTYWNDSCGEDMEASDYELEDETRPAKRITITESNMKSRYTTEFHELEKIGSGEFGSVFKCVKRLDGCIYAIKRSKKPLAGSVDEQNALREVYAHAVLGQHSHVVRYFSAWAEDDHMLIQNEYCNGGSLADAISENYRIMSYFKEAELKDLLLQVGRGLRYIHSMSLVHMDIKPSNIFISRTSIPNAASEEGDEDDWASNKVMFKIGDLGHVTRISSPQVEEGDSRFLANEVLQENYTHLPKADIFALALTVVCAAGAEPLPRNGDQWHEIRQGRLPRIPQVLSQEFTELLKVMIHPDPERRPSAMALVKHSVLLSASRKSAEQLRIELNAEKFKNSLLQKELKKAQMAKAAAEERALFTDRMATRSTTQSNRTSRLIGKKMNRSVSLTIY

Consider `CC(C)(F)c1cccc(-n2c3nc(Nc4ccc5c(c4)CCNC5)ncc3c(=O)n2C2CC2)n1` [Example 1.146], for which the 50% inhibitory concentration (IC50) (in general, the concentration that inhibits the measured activity by half) came out at 6680 nM with A549 cells; 6820 nM with A172 cells; 965 nM with A427 cells [1]; 920 nM with As-Pc-1 cells; 5700 nM in the experiment with Panc 10.05 cells; 9 nM at WEE1 kinase enzyme.
On to `CC(C)n1c(=O)c2cnc(Nc3ccc4c(c3)CNCC4)nc2n1-c1ccnc(C(C)(C)C)n1` [Example 2.184], for which the IC50 with A549 cells is 655 nM; in the experiment on A172 cells, 985 nM; in the experiment with A427 cells [1], 90 nM; in the experiment on As-Pc-1 cells, 85 nM; in the experiment on Panc 10.05 cells it was 545 nM; on WEE1 kinase enzyme, 2 nM.
On to `CCn1c(=O)c2cnc(Nc3ccc4c(c3)CCNC4)nc2n1-c1cccc(C(C)(C)O)n1` [Example 1.12], for which the IC50 stood at 70 nM with A427 cells [2] (setting [4]); 120 nM in the experiment on A427 cells [2] (setting [5]); 1060 nM in the experiment on A549 cells; 1720 nM in the experiment on A427 cells [1]; 4 nM on WEE1 kinase enzyme.
Take `CC(C)(C)c1cc(-n2c3nc(Nc4ccc5c(c4)CCNC5(C)C)ncc3c(=O)n2C2CC2)ccn1` [Example 2.182]: the 50% inhibitory concentration (IC50) came to 7750 nM in the experiment with A549 cells; 10600 nM in the experiment with A172 cells; 720 nM in the experiment on A427 cells [1]; 1740 nM with As-Pc-1 cells; 8600 nM in the experiment with Panc 10.05 cells; 62 nM on WEE1 kinase enzyme.
Consider `CC(C)n1c(=O)c2cnc(Nc3ccc4c(c3)CCNC4)nc2n1-c1ccn(C2CC2)n1` [Example 2.188], for which the half-inhibitory concentration (IC50) in the experiment on A549 cells was 910 nM; in the experiment on A172 cells it was 1520 nM; with A427 cells [1] it was 815 nM; in the experiment on As-Pc-1 cells it was 965 nM; in the experiment with Panc 10.05 cells it was 3100 nM; at WEE1 kinase enzyme, 53 nM.
Take `C=CCn1c(=O)c2cnc(Nc3ccc4c(c3)CN(C(=O)CO)CC4(C)C)nc2n1-c1cccc(C(C)(C)O)n1` [Example 1.6]: the half-maximal inhibitory concentration (IC50) was 972 nM in the experiment on A549 cells, 355 nM in the experiment on A427 cells [1], 3.1 nM on WEE1 kinase enzyme and 277 nM with A427 cells [3].
As to `CCn1c(=O)c2cnc(Nc3ccc4c(c3)CN(C)CC4(C)C)nc2n1-c1cccc(C(C)(C)O)n1` [Example 1.16], the IC50 was less than 14 nM in the experiment on A427 cells [2] (setting [4]); 100 nM in the experiment on A427 cells [2] (setting [5]); 1550 nM in the experiment with A549 cells; 1420 nM with A427 cells [1]; 4.5 nM on WEE1 kinase enzyme.
Consider `CC(C)(O)c1cccc(-n2c3nc(Nc4ccc5c(c4)CNCC5)ncc3c(=O)n2CC2CC2)n1` [Example 1.11], for which the concentration for half-maximal inhibition (IC50) in the experiment with A549 cells came out at 1180 nM; with A427 cells [1], 430 nM; at WEE1 kinase enzyme, 2 nM.
In the same order, the values of `CCCn1c(=O)c2cnc(Nc3ccc4c(c3)CNCC4)nc2n1-c1cccc(C(C)(C)O)n1` [Example 1.15] are 1200 nM, 560 nM and 1.5 nM.
`C=CCn1c(=O)c2cnc(Nc3ccc4c(c3)CN(C(=O)C(C)(C)O)CC4(C)C)nc2n1-c1cccc(C(C)(C)O)n1` [Example 1.3]: the half-maximal inhibitory concentration (IC50) was 1220 nM in the experiment with A549 cells, 620 nM in the experiment on A427 cells [1], less than 2 nM at WEE1 kinase enzyme and 483 nM in the experiment on A427 cells [3].
Turning to `CC(C)n1c(=O)c2cnc(Nc3ccc4c(c3)CCNC4)nc2n1-c1cccc(C(C)(C)F)n1` [Example 1.140], the IC50 turned out to be 555 nM in the experiment with A427 cells [1], 1520 nM in the experiment on Panc 10.05 cells and 5 nM on WEE1 kinase enzyme.
In the case of `CC(C)(C)c1cccc(-n2c3nc(Nc4ccc5c(c4)CCNC5)ncc3c(=O)n2C2CC2)n1` [Example 1.143], the concentration for half-maximal inhibition (IC50) with A549 cells turned out to be 2850 nM; in the experiment with A172 cells it was 3620 nM; in the experiment on A427 cells [1], 470 nM; in the experiment with As-Pc-1 cells, 270 nM; in the experiment with Panc 10.05 cells, 1850 nM; at WEE1 kinase enzyme, 3 nM.
As to `C=CCn1c(=O)c2cnc(Nc3ccc4c(c3)CN(C(=O)CO)CC4)nc2n1-c1cccc(C(C)(C)O)n1` [Example 1.2], the half-maximal inhibitory concentration (IC50) with A549 cells was 842 nM; in the experiment with A427 cells [1], 330 nM; on WEE1 kinase enzyme, 4 nM; in the experiment with A427 cells [3], 269 nM.
Take `CC(C)n1c(=O)c2cnc(Nc3ccc4c(c3)CCNC4)nc2n1-c1ccnc(C(C)(C)C)n1` [Example 2.183]: the IC50 is 1800 nM with A549 cells; 1640 nM in the experiment with A172 cells; 135 nM with A427 cells [1]; 95 nM with As-Pc-1 cells; 805 nM with Panc 10.05 cells; 4 nM on WEE1 kinase enzyme.
Take `CC(C)(O)c1cccc(-n2c3nc(Nc4ccc5c(c4)CNCC5)ncc3c(=O)n2C2CC2)n1` [Example 1.17]: the IC50 worked out at 9060 nM in the experiment on A549 cells, 2320 nM with A427 cells [1] and 9.5 nM at WEE1 kinase enzyme.
